Results: patent US7022648B2, “Plant seeds treated with N,N′-substituted ureas” (Stoller Enterprises, Inc., priority 1996, dated 2006)
“And” between values parts separate entries of the source, which are not always exact repeats. Equal values may be shown once.

Legend:
Format in all cases: in vivo
Corn = assay: Preliminary greenhouse pot test, seeds soaked in diformylurea solution, root and shoot mass; conditions: seed soak 24 h, 30 days
Description: (§1) In a preliminary experiment to determine the agricultural value of the N,N′-diformylurea prepared above, a concentrate was prepared by mixing 200 grams diformylurea and 200 grams formic acid, adjusting the ph to about 5.5 by the addition of potassium hydroxide and adding sufficient water to make 1 liter. […] Low, medium and high dilution aqueous solutions were prepared by diluting, respectively, 0.8 grams, 8.0 grams and 40.0 grams of the concentrate per liter of final solution. […] The foregoing solutions were used to coat corn, soybean, cotton and rice seeds prior to planting. Coating was achieved by soaking the seeds in the foregoing solutions for about 24 hours. Sufficient solution was used to keep the seeds immersed. Control seeds were soaked in water for the same time. Untreated or control seeds, together with seeds treated by the low, medium and high dilution solutions, were planted in 1 gallon greenhouse pots. Six pots were used for each dilution or control with five seeds planted per pot. The plants were thinned to two plants per pot after emergence. The plants were watered and fertilized as required. After 30 days the plants were harvested and the roots and shoots examined. The roots and shoots were weighed separately and the root/shoot ratio determined. The treated plants were generally characterized by both greater root mass and shoot mass when compared to the controls. The root/shoot ratio for most of the treated plants was greater than that for the controls.

Soybean [1] = assay: as above; conditions: seed soak 24 h, 30 days
Description: as §1

Cotton [2] = assay: as above; conditions: seed soak 24 h, 30 days
Description: as §1

Rice [3] = assay: as above; conditions: seed soak 24 h, 30 days
Description: as §1

Soybean [4] = assay: Greenhouse pot test, effect of diformylurea concentration applied to seeds; conditions: seed treated, 24 h soak, 30 days; for Roots (gm), Average / Shoots (gm), Average / Total (gm), Average: average of samples
Description: (§2) Additional experiments were designed to study further the effect of the concentration of diformylurea applied to the seeds of several other crops. These experiments were conducted using cotton, rice, corn and soybeans. These experiments were similar to the preliminary experiments described above. The concentrate described above, containing both diformylurea and formate, was used to prepare solutions containing low, medium and high concentrations of diformylurea having, respectively, 0.001 M, 0.01 M and 0.05 M diformylurea. These solutions were used to treat the seeds of cotton, rice, corn and soybeans. Seeds of each of these crops were soaked in water or the prepared aqueous solutions of diformylurea for 24 hours before planting. Five seeds were planted in each of six, 1 gallon greenhouse pots. Pots were thinned to two plants after germination and the plants watered and fertilized as needed for 30 days. Thereafter, the plants were harvested and the mass of the roots, shoots and total mass determined.

Cotton [5] = assay: as above; conditions: seed treated, 24 h soak, 30 days; for Roots (gm), Average / Shoots (gm), Average / Total (gm), Average: average of samples
Description: as §2

Rice [6] = assay: as above; conditions: seed treated, 24 h soak, 30 days; for Roots (gm), Average / Shoots (gm), Average / Total (gm), Average: average of samples
Description: as §2

Rice [7] = assay: Single application to rice at tillering, yield; conditions: 50 grams per acre at tillering
Excerpt: The reaction products of the present invention, specifically N,N′-diformylurea, have been used to enhance the growth of plants. […] For example, a single application to rice at the rate of 50 grams per acre at tillering has produced a 25 percent increase in yield.

O=CNC(=O)NC=O [diformylurea, N,N′-diformylurea]
crown roots on plants grown from treated seeds (Corn): crown roots were noticed | Root/Shoot Ratio (Corn; High dilution, 0.068 M): 1.09 | Roots (gm) (Corn; High dilution, 0.068 M): 9.60 gm | Shoots (gm) (Corn; High dilution, 0.068 M): 8.80 gm | Total (gm) (Corn; High dilution, 0.068 M): 18.40 gm | Root/Shoot Ratio (Corn; Low dilution, 0.0013 M): 1.04 | Roots (gm) (Corn; Low dilution, 0.0013 M): 9.80 gm | Shoots (gm) (Corn; Low dilution, 0.0013 M): 9.40 gm | Total (gm) (Corn; Low dilution, 0.0013 M): 19.20 gm | Root/Shoot Ratio (Corn; Medium dilution, 0.013 M): 1.08 | Roots (gm) (Corn; Medium dilution, 0.013 M): 10.40 gm | Shoots (gm) (Corn; Medium dilution, 0.013 M): 9.60 gm | Total (gm) (Corn; Medium dilution, 0.013 M): 20.00 gm | Root/Shoot Ratio (Soybean [1]; Low dilution, 0.0013 M): 0.93 | Roots (gm) (Soybean [1]; Low dilution, 0.0013 M): 4.60 gm | Shoots (gm) (Soybean [1]; Low dilution, 0.0013 M): 4.90 gm | Total (gm) (Soybean [1]; Low dilution, 0.0013 M): 9.50 gm | Root/Shoot Ratio (Soybean [1]; Medium dilution, 0.013 M): 1.20 | Roots (gm) (Soybean [1]; Medium dilution, 0.013 M): 4.90 gm | Shoots (gm) (Soybean [1]; Medium dilution, 0.013 M): 4.10 gm | Total (gm) (Soybean [1]; Medium dilution, 0.013 M): 9.00 gm | Root/Shoot Ratio (Cotton [2]; High dilution, 0.068 M): 0.73 | Roots (gm) (Cotton [2]; High dilution, 0.068 M): 5.07 gm | Shoots (gm) (Cotton [2]; High dilution, 0.068 M): 6.90 gm | Total (gm) (Cotton [2]; High dilution, 0.068 M): 11.97 gm | Root/Shoot Ratio (Cotton [2]; Low dilution, 0.0013 M): 1.46 | Roots (gm) (Cotton [2]; Low dilution, 0.0013 M): 7.85 gm | Shoots (gm) (Cotton [2]; Low dilution, 0.0013 M): 5.38 gm | Total (gm) (Cotton [2]; Low dilution, 0.0013 M): 13.23 gm | Root/Shoot Ratio (Cotton [2]; Medium dilution, 0.013 M): 1.08 | Roots (gm) (Cotton [2]; Medium dilution, 0.013 M): 4.50 gm | Shoots (gm) (Cotton [2]; Medium dilution, 0.013 M): 5.25 gm | Total (gm) (Cotton [2]; Medium dilution, 0.013 M): 9.75 gm | crown roots on plants grown from treated seeds (Rice [3]): crown roots were noticed | Root/Shoot Ratio (Rice [3]; High dilution, 0.068 M): 2.10 | Roots (gm) (Rice [3]; High dilution, 0.068 M): 0.82 gm | Shoots (gm) (Rice [3]; High dilution, 0.068 M): 0.39 gm | Total (gm) (Rice [3]; High dilution, 0.068 M): 1.21 gm | Root/Shoot Ratio (Rice [3]; Low dilution, 0.0013 M): 1.78 | Roots (gm) (Rice [3]; Low dilution, 0.0013 M): 0.61 gm | Shoots (gm) (Rice [3]; Low dilution, 0.0013 M): 0.34 gm | Total (gm) (Rice [3]; Low dilution, 0.0013 M): 0.95 gm | Root/Shoot Ratio (Rice [3]; Medium dilution, 0.013 M): 1.86 | Roots (gm) (Rice [3]; Medium dilution, 0.013 M): 3.07 gm | Shoots (gm) (Rice [3]; Medium dilution, 0.013 M): 1.84 gm | Total (gm) (Rice [3]; Medium dilution, 0.013 M): 4.91 gm | Percent Change v. Control, Roots (Soybean [4]; 0.001 M): 89% | Percent Change v. Control, Shoots (Soybean [4]; 0.001 M): 29% | Percent Change v. Control, Total (Soybean [4]; 0.001 M): 52% | Root/Shoot Ratio (Soybean [4]; 0.001 M): 0.93 | Roots (gm), Average (Soybean [4]; 0.001 M): 9.18 gm | Shoots (gm), Average (Soybean [4]; 0.001 M): 9.87 gm | Total (gm), Average (Soybean [4]; 0.001 M): 19.05 gm | Roots (gm) (Soybean [4]; 0.001 M, single sample (pot)): 7.30 gm and 8.00 gm and 11.30 gm and 12.30 gm and 7.80 gm and 8.40 gm | Shoots (gm) (Soybean [4]; 0.001 M, single sample (pot)): 10.20 gm and 10.30 gm and 9.30 gm and 10.90 gm and 8.70 gm and 9.80 gm | Total (gm) (Soybean [4]; 0.001 M, single sample (pot)): 17.50 gm and 18.30 gm and 20.60 gm and 23.20 gm and 16.50 gm and 18.20 gm | Percent Change v. Control, Roots (Soybean [4]; 0.01 M): 54% | Percent Change v. Control, Shoots (Soybean [4]; 0.01 M): 16% | Percent Change v. Control, Total (Soybean [4]; 0.01 M): 31% | Root/Shoot Ratio (Soybean [4]; 0.01 M): 0.84 | Roots (gm), Average (Soybean [4]; 0.01 M): 7.48 gm | Shoots (gm), Average (Soybean [4]; 0.01 M): 8.86 gm | Total (gm), Average (Soybean [4]; 0.01 M): 16.34 gm | Shoots (gm) (Soybean [4]; 0.01 M, single sample (pot)): 11.20 gm and 6.00 gm and 8.30 gm and 9.90 gm and 8.90 gm | Percent Change v. Control, Roots (Cotton [5]; 0.001 M): 159% | Percent Change v. Control, Shoots (Cotton [5]; 0.001 M): 18% | Percent Change v. Control, Total (Cotton [5]; 0.001 M): 74% | Root/Shoot Ratio (Cotton [5]; 0.001 M): 1.46 | Roots (gm), Average (Cotton [5]; 0.001 M): 7.85 gm | Shoots (gm), Average (Cotton [5]; 0.001 M): 5.38 gm | Total (gm), Average (Cotton [5]; 0.001 M): 13.23 gm | Shoots (gm) (Cotton [5]; 0.001 M, single sample (pot)): 4.80 gm and 4.40 gm and 6.20 gm and 5.50 gm and 5.70 gm | Total (gm) (Cotton [5]; 0.001 M, single sample (pot)): 8.60 gm and 12.40 gm and 16.20 gm and 14.70 gm and 12.60 gm and 14.90 gm | Percent Change v. Control, Roots (Cotton [5]; 0.01 M): 49% | Percent Change v. Control, Shoots (Cotton [5]; 0.01 M): 15% | Percent Change v. Control, Total (Cotton [5]; 0.01 M): 28% | Root/Shoot Ratio (Cotton [5]; 0.01 M): 0.86 | Roots (gm), Average (Cotton [5]; 0.01 M): 4.50 gm | Shoots (gm), Average (Cotton [5]; 0.01 M): 5.25 gm | Total (gm), Average (Cotton [5]; 0.01 M): 9.75 gm | Shoots (gm) (Cotton [5]; 0.01 M, single sample (pot)): 4.00 gm and 6.00 gm and 4.90 gm and 7.20 gm and 4.80 gm and 4.60 gm | Percent Change v. Control, Roots (Cotton [5]; 0.05 M): 67% | Percent Change v. Control, Shoots (Cotton [5]; 0.05 M): 29% | Percent Change v. Control, Total (Cotton [5]; 0.05 M): 44% | Root/Shoot Ratio (Cotton [5]; 0.05 M): 0.86 | Roots (gm), Average (Cotton [5]; 0.05 M): 5.07 gm | Shoots (gm), Average (Cotton [5]; 0.05 M): 5.90 gm | Total (gm), Average (Cotton [5]; 0.05 M): 10.97 gm | Roots (gm) (Cotton [5]; 0.05 M, single sample (pot)): 4.30 gm and 6.00 gm and 4.20 gm and 4.60 gm and 4.70 gm and 6.60 gm | Shoots (gm) (Cotton [5]; 0.05 M, single sample (pot)): 4.70 gm and 5.00 gm and 6.40 gm and 5.40 gm and 6.90 gm and 7.00 gm | Total (gm) (Cotton [5]; 0.05 M, single sample (pot)): 9.00 gm and 11.00 gm and 10.60 gm and 10.80 gm and 11.60 gm and 13.60 gm | Percent Change v. Control, Roots (Rice [6]; 0.001 M): 37% | Percent Change v. Control, Shoots (Rice [6]; 0.001 M): 42% | Percent Change v. Control, Total (Rice [6]; 0.001 M): 39% | Root/Shoot Ratio (Rice [6]; 0.001 M): 1.79 | Roots (gm), Average (Rice [6]; 0.001 M): 0.61 gm | Shoots (gm), Average (Rice [6]; 0.001 M): 0.34 gm | Total (gm), Average (Rice [6]; 0.001 M): 0.95 gm | Percent Change v. Control, Roots (Rice [6]; 0.01 M): 13% | Percent Change v. Control, Shoots (Rice [6]; 0.01 M): 29% | Percent Change v. Control, Total (Rice [6]; 0.01 M): 19% | Root/Shoot Ratio (Rice [6]; 0.01 M): 1.67 | Roots (gm), Average (Rice [6]; 0.01 M): 0.51 gm | Shoots (gm), Average (Rice [6]; 0.01 M): 0.31 gm | Total (gm), Average (Rice [6]; 0.01 M): 0.82 gm | Percent Change v. Control, Roots (Rice [6]; 0.05 M): 82% | Percent Change v. Control, Shoots (Rice [6]; 0.05 M): 63% | Percent Change v. Control, Total (Rice [6]; 0.05 M): 76% | Root/Shoot Ratio (Rice [6]; 0.05 M): 2.13 | Roots (gm), Average (Rice [6]; 0.05 M): 0.82 gm | Shoots (gm), Average (Rice [6]; 0.05 M): 0.39 gm | Total (gm), Average (Rice [6]; 0.05 M): 1.21 gm | increase in yield (Rice [7]): 25%
